Converted amounts (≈) assume the structure as drawn. Where two headings read alike, the source gives them in different places. Some results are limits rather than exact numbers.

In test [1] the test system is S. aureus (SA38). Nature of the test: Minimum inhibitory concentration (MIC) assay against S. aureus. In kind it is cell-based, Staphylococcus aureus. The protocol:
(§1) The antimicrobial activity of the compounds was evaluated by MIC assay using the procedure described by Clinical and Laboratory Standards Institute (CLSI). A single colony of bacteria was cultured overnight in trypticase soy broth (TSB; Oxoid, Basingstoke, UK) at 37 °C with shaking. The resulting bacterial culture was collected by centrifugation and resuspended in TSB twice. The optical density (OD) of the resulting culture was adjusted to OD660 = 0.1 in TSB (which is equivalent to 10^8 colony forming unit (CFU)/mL bacteria). It was further diluted to 10^6 CFU/mL in TSB. 100 µL of the bacterial solution was then added to wells of a 96-well plate (Costar; Sigma-Aldrich, St Louis, MO, USA) containing 100 µL serially diluted peptide mimic, with final concentration ranging from 1 to 250 µM. Wells with bacteria but no compound were used as negative control while wells with only media were set as blank. The plates were then wrapped with parafilm to prevent evaporation and incubated with shaking at 120 rpm at 37 °C for 18–24 h, and the data were recorded by measuring the OD value at 660 nm using a FLUOstar Omega (BMG Labtech, Mornington, Victoria, Australia) microplate reader. […] Each experiment was performed in triplicate and was repeated in three independent experiments.

In test [2] the test system is MRC-5 normal human lung fibroblasts. Nature of the test: MTT toxicity assay. In kind it is cell-based. To be noted: 72 h drug incubation, read-out: IC50 against MRC-5 normal human lung fibroblasts. The protocol:
The toxicity of the compounds was measured using an MTT (3-(4,5-dimethylthiazol-2-yl)-2,5-diphenyltetrazolium bromide) (Sigma Aldrich, St Louis, MO, USA) colorimetric assay against normal human lung fibroblasts MRC-5 cells. The cells were cultured in minimal essential medium (MEM; Sigma Aldrich, St Louis, MO, USA) containing 10% foetal bovine serum (FBS). The cells were maintained at 37 °C in 5% CO2 as an adherent monolayer and was passaged upon reaching confluence by standard cell culture techniques. MRC-5 cells were seeded at 5000 cells/well in 96-well plates to ensure full confluence (quiescence) and left overnight to adhere to the plate wells. The adherent cells were treated with 1–500 µM of compounds by dissolving in DMSO and serially diluting with media. The final concentration of DMSO was 0.5% (v/v). After 72 h drug incubation, […] stock MTT solution (5 mg/mL) was added and the cells were incubated for another 3.5–4 h. MTT solution-containing media was carefully aspirated without displacing the purple crystals from the bottom and […] acid-isopropanol was added to all wells and mixed slowly by shaking with an orbital shaker to dissolve the dark blue crystals. The metabolic activity was detected by spectrophotometric analysis by assessing the read absorbance (590/620 nm) on an EnSight plate reader (PerkinElmer, Waltham, MA, USA) and cell viability was expressed as a percentage of untreated control cells. The determination of IC50 values was performed using GraphPad Prism 6 (GraphPad, San Diego, CA, USA). Each experiment was performed in triplicate and was repeated in three independent experiments.
(Formazan colour is commonly taken as a measure of viable cells.)

In test [3] the test system is P. aeruginosa (PA01). As to the kind of experiment: Minimum inhibitory concentration (MIC) assay against P. aeruginosa. It is filed as cell-based. As to conditions: Pseudomonas aeruginosa. The protocol: as §1
The test system of test [4] is E. coli (K12). Nature of the test: Minimum inhibitory concentration (MIC) assay against E. coli. It is filed as cell-based. To be noted: Escherichia coli. The protocol: as §1
The test system of test [5] is established S. aureus biofilms. As to the kind of experiment: Biofilm disruption assay (crystal violet staining), S. aureus. In kind it is cell-based, Staphylococcus aureus. As to conditions: any tested concentration (1×, 2× and 4× MIC), 24 h treatment. The protocol: Bacterial cultures (S. aureus and E. coli) were grown in Muller Hinton broth (MHB; Oxoid, Basingstoke, UK) media overnight at 37 °C with shaking at 120 rpm. Cultures were diluted (1:20) in MHB medium and 200 µL aliquots were dispensed to wells in a flat bottom 96-well plate (Costar; Sigma-Aldrich, St Louis, MO, USA). Biofilm was then grown in the 96-well plate at 37 °C overnight. After that, loosely bound cells were washed away with 1x phosphate-buffered saline (PBS) and cultures were then supplemented with different concentrations of test compounds dissolved in DMSO and incubated for a further 24 h with shaking at 120 rpm. Biofilms adhered on the plate substratum were quantified using crystal violet staining as described previously. The experiment was performed in triplicate.

With `CCCCS(=O)(=O)Nc1ccc(-c2ccccc2)cc1C(=O)C(=O)NCCCN(C)C.Cl` [Compound 14a, 3-(2-(4-(Butylsulfonamido)-[1,1’-biphenyl]-3-yl)-2-oxoacetamido)-N,N-dimethylpropan-1-aminium chloride], the MIC (usually the least concentration at which growth counts as inhibited) in test [1] was above 250 µM.
On to `C[N+](C)(C)CCCNC(=O)C(=O)c1cc(-c2ccccc2)ccc1NC(=O)c1ccc2ccccc2c1` [Compound 27, 3-(2-(4-(2-Naphthamido)-[1,1’-biphenyl]-3-yl)-2-oxoacetamido)-N,N,N-trimethylpropan-1-aminium iodide], for which the minimum inhibitory concentration (MIC) in test [1] (Staphylococcus aureus) is 32 µM.
For the compound `CCCCCCCCS(=O)(=O)Nc1ccc(-c2ccccc2)cc1C(=O)C(=O)NCCCN(C)C` [Compound 11a, N-(3-(Dimethylamino)propyl)-2-(4-(octylsulfonamido)-[1,1’-biphenyl]-3-yl)-2-oxoacetamide], the minimal inhibitory concentration (MIC) in test [1] was 24 µM (≈ 12 µg/mL). The IC50 (as a rule, the midpoint of a concentration-inhibition curve) in test [2] was 28.2 µM; in test [2] (Homo sapiens, MRC5, 72 h), below 30 µM.
In turn, `CN(C)CCCNC(=O)C(=O)c1cc(-c2ccccc2)ccc1NC(=O)c1ccc2ccccc2c1.Cl` [Compound 26, 3-(2-(4-(2-Naphthamido)-[1,1’-biphenyl]-3-yl)-2-oxoacetamido)-N,N-dimethylpropan-1-aminium chloride] gave an MIC in test [1] above 250 µM.
Regarding `CCCCCCCCS(=O)(=O)Nc1ccc(-c2ccc(Cl)cc2)cc1C(=O)C(=O)NCCCN(C)C` [Compound 13c, 3-(2-(4’-Chloro-4-(octylsulfonamido)-[1,1’-biphenyl]-3-yl)-2-oxoacetamido)-N,N-dimethylpropan-1-aminium chloride], in test [1] (Staphylococcus aureus), the minimal inhibitory concentration (MIC) was 16 µM. The IC50 in test [2] (Homo sapiens, MRC5, 72 h) was 25.5 µM.
On to `CCCCCCCCS(=O)(=O)Nc1ccc(-c2ccc(Cl)cc2)cc1C(=O)C(=O)NCCCNC(=N)N.Cl` [Compound 22c, 2-(4’-Chloro-4-(octylsulfonamido)-[1,1’-biphenyl]-3-yl)-N-(3-guanidinopropyl)-2-oxoacetamide hydrochloride], for which the MIC in test [1] (Staphylococcus aureus) was determined as 8 µM; in test [3] it was 250 µM; in test [4], 63 µM. Besides, in test [5], the “disruption of preformed S. aureus biofilms” value is “failed to disrupt any”. Moreover, the concentration for half-maximal inhibition (IC50) in test [2] (Homo sapiens, MRC5, 72 h) was 95 µM.
In test [1], `CCCCCCCCS(=O)(=O)Nc1ccc(-c2ccc3ccccc3c2)cc1C(=O)C(=O)NCCCN(C)C` [Compound 11d, N-(3-(Dimethylamino)propyl)-2-(5-(naphthalen-2-yl)-2-(octylsulfonamido)phenyl)-2-oxoacetamide] displayed a minimum inhibitory concentration (MIC) of 16 µM (≈ 8.83 µg/mL). That is a double-digit micromolar value.
Consider `CCCCCCCCS(=O)(=O)Nc1ccc(-c2ccc(F)cc2)cc1C(=O)C(=O)NCCC[N+](C)(C)C` [Compound 15b, 3-(2-(4’-Fluoro-4-(octylsulfonamido)-[1,1’-biphenyl]-3-yl)-2-oxoacetamido)-N,N,N-trimethylpropan-1-aminium iodide], for which the minimum inhibitory concentration (MIC) in test [1] (Staphylococcus aureus) turned out to be 16 µM; in test [3], 63 µM; in test [4], 32 µM. The IC50 in test [2] (Homo sapiens, MRC5, 72 h) stood at 190 µM.
`CCCCCCCCS(=O)(=O)Nc1ccc(-c2ccc3ccccc3c2)cc1C(=O)C(=O)NCCCN(C)C` [Compound 13d, N,N-Dimethyl-3-(2-(5-(naphthalen-2-yl)-2-(octylsulfonamido)phenyl)-2-oxoacetamido)propan-1-aminium chloride]: the MIC in test [1] (Staphylococcus aureus) worked out at 8 µM. In addition, the IC50 in test [2] was found to be 19.7 µM.
Turning to `CCCCCCCCS(=O)(=O)Nc1ccc(-c2ccccc2)cc1C(=O)C(=O)NCCCN(C)C` [Compound 13a, N,N-Dimethyl-3-(2-(4-(octylsulfonamido)-[1,1’-biphenyl]-3-yl)-2-oxoacetamido)propan-1-aminium chloride], the MIC in test [1] (Staphylococcus aureus) worked out at 16 µM. Moreover, the 50% inhibitory concentration (IC50) in test [2] was 25 µM.
With `CCCCCCCCS(=O)(=O)Nc1ccc(CCCC)cc1C(=O)C(=O)NCCCN(C)C` [Compound 11e, 2-(5-Butyl-2-(octylsulfonamido)phenyl)-N-(3-(dimethylamino)propyl)-2-oxoacetamide], in test [1], the MIC was determined as 63 µM (≈ 30.3 µg/mL). In other words, the double-digit micromolar range.
In test [1], `CCCCCCCCS(=O)(=O)Nc1ccc(-c2ccc(F)cc2)cc1C(=O)C(=O)NCCCN(C)C` [Compound 11b, N-(3-(Dimethylamino)propyl)-2-(4’-fluoro-4-(octylsulfonamido)-[1,1’-biphenyl]-3-yl)-2-oxoacetamide] displayed an MIC of 16 µM (≈ 8.31 µg/mL).
Still for that read-out and setting: next, `CCCCCCCCS(=O)(=O)Nc1ccc(-c2ccc(Cl)cc2)cc1C(=O)C(=O)NCCCN(C)C` [Compound 11c, 2-(4’-Chloro-4-(octylsulfonamido)-[1,1’-biphenyl]-3-yl)-N-(3-(dimethylamino)propyl)-2-oxoacetamide]: 16 µM (≈ 8.58 µg/mL).
As to `CCCCCCCCS(=O)(=O)Nc1ccc(-c2ccc(F)cc2)cc1C(=O)C(=O)NCCCN(C)C` [Compound 13b, 3-(2-(4’-Fluoro-4-(octylsulfonamido)-[1,1’-biphenyl]-3-yl)-2-oxoacetamido)-N,N-dimethylpropan-1-aminium chloride], in test [1] (Staphylococcus aureus), the MIC came out at 16 µM.
`CCCCCCCCS(=O)(=O)Nc1ccc(CCCC)cc1C(=O)C(=O)NCCCN(C)C` [Compound 13e, 3-(2-(5-Butyl-2-(octylsulfonamido)phenyl)-2-oxoacetamido)-N,N-dimethylpropan-1-aminium chloride] returned an MIC in test [1] (Staphylococcus aureus) of 32 µM. In addition, the IC50 in test [2] (Homo sapiens, MRC5, 72 h) was determined as 23.6 µM.
Turning to `CCCCCCCCS(=O)(=O)Nc1ccc(-c2ccccc2)cc1C(=O)C(=O)NCCC[N+](C)(C)C` [Compound 15a, N,N,N-Trimethyl-3-(2-(4-(octylsulfonamido)-[1,1’-biphenyl]-3-yl)-2-oxoacetamido)propan-1-aminium iodide], the minimum inhibitory concentration (MIC) in test [1] (Staphylococcus aureus) was determined as 16 µM; in test [3], 125 µM; in test [4] it was 32 µM. Besides, the IC50 in test [2] (Homo sapiens, MRC5, 72 h) was found to be 50.7 µM.
For the compound `CCCCS(=O)(=O)Nc1ccc(-c2ccccc2)cc1C(=O)C(=O)NCCCN(C)C` [Compound 12a, 2-(4-(Butylsulfonamido)-[1,1’-biphenyl]-3-yl)-N-(3-(dimethylamino)propyl)-2-oxoacetamide], the MIC in test [1] (Staphylococcus aureus) was above 250 µM.
In the case of `CCCCCCCCS(=O)(=O)Nc1ccc(CCCC)cc1C(=O)C(=O)NCCC[N+](C)(C)C` [Compound 15e, 3-(2-(5-Butyl-2-(octylsulfonamido)phenyl)-2-oxoacetamido)-N,N,N-trimethylpropan-1-aminium iodide], the MIC was 16 µM in test [1] (Staphylococcus aureus), above 250 µM in test [3] and above 250 µM in test [4]. Also, the IC50 in test [2] (Homo sapiens, MRC5, 72 h) turned out to be 101 µM.
Take `CCCCS(=O)(=O)Nc1ccc(-c2ccccc2)cc1C(=O)C(=O)NCCC[N+](C)(C)C` [Compound 16a, 3-(2-(4-(Butylsulfonamido)-[1,1’-biphenyl]-3-yl)-2-oxoacetamido)-N,N,N-trimethylpropan-1-aminium iodide]: the minimal inhibitory concentration (MIC) in test [1] (Staphylococcus aureus) is above 250 µM.

The record behind these values is article PMC7555970, “Design, Synthesis and Biological Evaluation of Biphenylglyoxamide-Based Small Molecular Antimicrobial Peptide Mimics as Antibacterial Agents” (International Journal of Molecular Sciences, 2020).
